The source made the active and inactive calls.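 Rule for the calls: active = compounds giving half or more protection of infected cells from virus-caused growth loss, again on retest; inactive = the rest.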 *1 amine or outer side, *2 acyl side, *3 side chain or, on linkers, in order; H or OH if unused. Where a SMILES comes first, the peptide text is derived from it. [ ]: non-standard residue; d: D form. X7 = NC(N)=NCC(O)CC(N[*:1])C(=O)[*:2]; Orn = NCCC[CH](N)C(=O)O
Tested on: CEM cells HIV-1 protection, formazan growth assay
Experiment: NCI AIDS Antiviral Assay
Details: for IC50: measured here: growth of uninfected CEM cells
In short: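 Protection of CEM cells against HIV-1 measured as cell growth via soluble formazan read-out, with five concentrations tested on both infected and uninfected cells; failure to protect may reflect toxicity.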

SMILES	EC50 [µM]	IC50 [µM]	outcome
O=S(=O)(NCCSSCCNS(=O)(=O)c1cccc2cccnc12)c1cccc2cccnc12	> 200	10.7	–
Cc1ccc2c(c1)nc1c3ccccc3nnn21	> 16.2	> 16.2	–
COc1cc2cc(C(=O)N3CC(CCl)c4ccc(N(C)C)cc43)[nH]c2c(OC)c1OC (configuration not stated)	> 2	0.138	–
O=S(=O)(O)CS(=O)(=O)O	> 200	> 200	–
COC(=O)C(=O)C(C(=O)C(=O)Nc1ccccc1C(C)=O)c1nc2ccc(C(=O)c3ccccc3)cc2[nH]c1=O (configuration not stated)	> 93.3	55	–
Cc1c(N=Nc2ccc([N+](=O)[O-])cc2)nc2scc(-c3ccccc3)n12	> 14.5	> 14.5	–
C[N+]1(C)C[C@@H](O)C[C@@H]1C(=O)[O-]	> 1580	> 1580	–
CN1C(=O)[C@@H]2[C@@H]3c4ccccc4N[C@@H]3c3[nH]c4ccccc4c3[C@@H]2C1=O	> 200	81.3	–
COC(=O)C(/C(=N/NC(N)=O)C(=O)Nc1c(C)cccc1C(C)(C)C)c1nc2ccc(Cl)cc2[nH]c1=O (configuration not stated)	–	–	inactive
Clc1cccc(Cl)c1C1ON=C(c2ccccc2)N1C12CC3CC(CC(C3)C1)C2 (configuration not stated)	> 100	14.5	–
Cc1cc2cc3ccc4cccc5ccc(c2oc1=O)c3c45	–	–	inactive
O=C1C(c2ccccc2)=C(c2ccccc2)C(c2ccc(Cc3ccc(C4=C(c5ccccc5)C(=O)C(c5ccccc5)=C4c4ccccc4)cc3)cc2)=C1c1ccccc1	> 1.35	> 1.35	–
COC(=O)C1Cc2cc3c(cc2C1=O)CCC3 (configuration not stated)	> 200	135	–
CCCCN(CCCC)C(=Nc1ccccc1)N(CCCC)CCCC	> 138	24	–
N#CC1C(=O)Nc2sc(C(=O)c3ccc(Br)cc3)c(N)c2C12CCCCC2 (configuration not stated)	> 200	11.5	–
CCCCCCCCCCCCNC(=O)c1ccc([Se][Se]c2ccc(C(=O)NCCCCCCCCCCCC)cc2)cc1	> 7.08	> 7.08	–

SMILES	EC50 [µM]	IC50 [µM]	outcome
CCCCCCCCCCCCSCC12c3ccccc3C(c3ccccc31)C(C(=O)O)C2C(=O)O (configuration not stated)	> 200	22.4	–
CCOc1cc2c(cc1OC)c[n+](C)c1c3cc(OC)c(OC)cc3ccc21	–	–	inactive
CC(=O)Nc1cc2cc(N)ccc2oc1=O	> 107	> 107	–
OC(Cc1cc(CC(O)(C(F)(F)F)C(F)(F)F)nc(CC(O)(C(F)(F)F)C(F)(F)F)c1)(C(F)(F)F)C(F)(F)F	> 200	1.02	–
C[Si](C)(C)O[C@@H]1CCCC1N (some centres not stated)	–	–	inactive
O=C(O)c1cc(O)ccc1O	> 200	> 200	–
CC(CC(C)[C@H]1CCC2[C@H]3C(CC(=O)[C@@]21C)[C@@]1(C)CCC(O)C[C@H]1C[C@@H]3O)C(=O)O (some centres not stated)	> 200	162	–
CC(O)C(NC(=O)C(CCCN)NC(=O)C(CC(O)CN=C(N)N)NC(=O)C(N)CCCN=C(N)N)C(=O)NC(CCCN)C(=O)NC(CC(O)CN=C(N)N)C(=O)NC(Cc1ccc(O)cc1)C(=O)O (configuration not stated) (tested in a mixture with another compound) (H-R[X7][Orn]T[Orn][X7]Y-OH; configuration not given here)	> 47.9	39.8	–
NC(=S)N/N=C1/CN(c2ccc(Cl)c(Cl)c2)CC(=O)C1c1nc2ccccc2s1 (configuration not stated)	–	–	inactive
Cc1cc(N(CCC#N)CCC#N)ccc1N=Nc1cc(Cl)ccc1Cl	> 3.72	2	–
CC1CC[Si](C)(C)CC12C(=O)NC(=O)NC2=O (configuration not stated)	> 200	> 200	–
CC1=N/C(=C\c2cccc(Cl)c2)C(=O)O1	> 85.1	> 85.1	–
CC(=O)NC1C(O)OC(CO)C(O)C1OC(C)C(=O)N[C@@H](CC(N)=O)C(=O)N[C@H](CCC(=O)O)C(N)=O (some centres not stated)	> 468	219	–
Cc1cnoc1NC1=CC(=O)C(=O)c2ccccc21	> 200	26.3	–
O=[N+]([O-])c1cc(Cl)c(O)c(N=Nc2cc(S(=O)(=O)O)c3cccc4c3c2N=NN4)c1	> 91.2	51.3	–

Reference: PubChem BioAssay AID179 (DTP/NCI, 2004)
